Measured values as given in patent publication US12065692B2, “Optical super-multiplexing by polyynes” (The Trustees of Columbia University in the City of New York, priority 2017, dated 2024).

System: live HeLa cells
Assay: Live-cell SRS imaging of organelle-targeted polyynes and co-localization with fluorescent organelle markers
Assay type: cell-based
Experimental: FIG. 9 is live-cell SRS imaging of organelle-targeted polyynes and co-localization with fluorescent organelle markers. […] High co-localizations are also observed between organelle-targeted polyynes with commercial fluorescent markers;
HeLa cells are cultured on a glass coverslip in a 4-well plate for 24 h, and […] Carbow2141 Mito is added in the media for 1 h at 37° C. Cells are washed with PBS for three times before imaging. For co-localization, 100 nM MitoTracker Deep Red is used to stain mitochondria for 1 h.
Cells were cultured on a glass coverslip in a 4-well plate for 24 h, and 4 μM Carbow2141 Lyso is added to cells for 30 min at 37° C. Cells are washed with PBS for three times before imaging. For co-localization, 100 nM LysoTracker Red (Invitrogen, L7528) is used to stain lysosome for 30 min.
Cell are incubated with 3 μM Carbow2141 PM in the culture media for 20 min at 37° C. and are washed with PBS for three times before imaging. For co-localization, 0.5 μg/mL CellMask Deep Red (Invitrogen, C10046) is used to stain cell membrane for 5 min.
Cells were cultured on a glass coverslip in a 4-well plate for 24 h and incubated with 10 μM Carbow2226 ER for 2 h at 37° C. Cells were washed with PBS for three times before imaging. For colocalization, 1 μM ERTracker Green (Invitrogen, E34251) was used to stain endoplasmic reticulum for 2 h. […]

Q: For O=C(NCCC[P+](c1ccccc1)(c1ccccc1)c1ccccc1)OCc1ccc(C#CC#CC#CC#Cc2ccccc2)cc1 [4-yne Mito], which “organelle localization / co-localization with fluorescent markers” value is on record?
A: The value was “specific localization to mitochondria”.
